# Patent US5434136A, “Treatment of motility disorders with a GNRH analog” (priority 1992, dated 1995)
# Columns and labels:
# [1] = system: migrating motor complexes, jejunum; experiment: Leuprolide acetate in ovariectomized female rats: migrating motor complexes; assay type: in vivo, ovariectomized female Wistar rats; conditions: for Migrating Motor Complexes, L-Fasted / Migrating Motor Complexes, L-Fed: ovariectomized
# Protocol: Eleven female Wistar rats weighing between 175 and 250 g were each implanted with four bipolar Ag/AgCL electrodes (the preparation of which is described in: Mathias, Am. J. Physiology, 249:[…]-[…], 1981). The electrodes were sewn 5 cm from the Ligament of Trietz and 5 cm apart, onto the jejunal serosa. The number of migrating myoelectric complexes was recorded using a R-612 Dynograph (Sensor-Medics, Anaheim, Calif.). Rats were fasted for 36 hours prior to recording and feeding (no food, liberal water), and were housed in special cages to remove feces. After 36 hours of fasting, Migrating Motor Complexes (MMC) were recorded at a sensitivity of 0.2 mV/cm, 2.5 mm/sec paper speed, and a Time Constant of 1 for a duration of 2 to 4 hours. Immediately following the fasted recording session, the rats were fed 2 biscuits of Purina rat chow with simultaneous recording during feeding and continued for 4 hours. Female Wistar rats were ovariectomized and permitted to recover ten days. Bipolar Ag/AgCl electrodes were then implanted as described for example 4. Control MMC readings in the fasted and fed states were recorded prior to treatment with leuprolide acetate (Controls) as described in Example 4. Treatment with leuprolide acetate followed using doses in the range of 2 to 250 μg/100 g body weight. Fasted and fed recordings were obtained as described for Example 4.
# [2] = system: motility of stomach and small intestine; experiment: Motility recordings (duodenal jejunal manometry) and hydrogen breath test in SLE patients; assay type: in vivo, human
# Protocol: Motility recordings of the stomach and small intestine were performed with a ultraminiature force-transducer probe (Millar Instruments, Houston, Tex.). Pressure readings from the probe were recorded on an R612 physiologic recorder fitted with Model 9872 couplers (SenorMedics, Yorba Linda, Calif.). After the probe was passed transnasally and placed fluoroscopically, a 12 hour recording of the patient was made with the patient in the fasted state. They then drank a 240-ml liquid meal (ENSURE), and the recording was continued for three hours to evaluate conversion from the fasting pattern to fed-state motor activity. During the fasting state, this patient had three poorly formed and disorganized migrating motor complexes, whereas the normal range expected is 6-8, or a mean of 7.4 in the 12 hour recording period. […] The patient was diagnosed as having chronic intestinal pseudo-obstruction associated with sero-negative SLE.
# [3] = system: functional bowel disease (GMD, IIHVN, Roux-en-Y Syndrome); experiment: Treatment of five patients with leuprolide acetate: symptoms; assay type: in vivo, human
# Text: Patients: Four of the five patients tested were women with functional bowel disease: two with gastrointestinal motor dysfunction (GMD), and two with idiopathic intestinal hollow visceral myopathy/neuropathy (IIHVN). The fifth patient had Roux-en-Y Syndrome. All patients had severe, incapacitating symptoms of abdominal pain, nausea, and intermittent vomiting. All had made frequent visits to emergency rooms, had seen many physicians, and undergone multiple tests and surgical procedures, and were unable to maintain their jobs or quality of life. They had been treated with many different drugs, including experimental drugs by protocol. They had difficulty in maintaining body weight, because their symptoms were worsened by eating. The symptoms of the two patients with GMD were abdominal pain located in the right upper quadrant and epigastrium, daily nausea, and intermittent vomiting exacerbated by eating and by the luteal phase of the menstrual cycle. The two patients with IIHVN had abdominal pain, nausea, and intermittent vomiting, and also had urinary tract involvement consisting of pain and a decrease in urination. The fifth patient had Roux-en-Y syndrome (defined as epigastric-to-right-upper-quadrant pain, nausea, and vomiting increased by eating) after surgical construction of a gastro-jejunal Roux-en-Y anastomosis. The mean duration of these symptoms was eight years (Table 1). All subjects had undergone extensive blood testing, several upper gastrointestinal x-ray series, barium enemas, esophagogastroduodenoscopy, endoscopic retrograde cholangiopancreatography, gastric emptying tests with radiolabeled meal, ultrasound of the abdomen, computerized axial tomography of the abdomen, and many other tests. The results of all tests were normal, except for prolonged gastric emptying in the patient with the Roux-en-Y Syndrome. Because of their intractable clinical problem, these patients were included in the test protocol with leuprolide acetate. Protocol: The symptoms of each patient were first assessed, and their tests evaluated. Each patient kept a daily symptom diary. Leuprolide acetate was obtained by prescription as Lupron (TAP pharmaceuticals, Abbott Labs, North Chicago, Ill.). One multi-use vial of Lupron comprised of […] Leuprolide Acetate. A daily dose of 0.5 mg ([…]) was self-administered by subcutaneous injection, for a period of three months. Each patient was examined at 0, 1 and 3 months of treatment. After the third month, leuprolide was continued as previously, and estrogen (0.625 mg orally) and calcium (1000 mg orally) were also administered. At the end of the sixth month, a two week withdrawal period from leuprolide acetate ensued. During this period a 10 mg oral dose of progesterone was given to pre-menopausal patients, to assess recurrence of symptoms and to induce menses. Post-menopausal women were not treated with progesterone during the two week withdrawal period. This procedure was then continued for an additional six months, with drug withdrawal and progesterone given every three months to induce a menstrual cycle. Serum estradiol, progesterone, FSH, and LH were quantitated by radioimmunoassay prior to the initiation of leuprolide treatment, and at three months post treatment initiation.
# [4] = Patient 4 (IIHVN), 0.5 mg daily s.c.
# [5] = Patient 5 (Roux-en-Y), 0.5 mg daily s.c.
structure (smiles),measurement,setting,value
"CCNC(=O)[C@@H]1CCCN1C(=O)[C@H](CCCNC(=N)N)NC(=O)[C@H](CC(C)C)NC(=O)[C@@H](CC(C)C)NC(=O)[C@H](Cc1ccc(O)cc1)NC(=O)[C@H](CO)NC(=O)[C@H](Cc1c[nH]c2ccccc12)NC(=O)[C@H](Cc1c[nH]cn1)NC(=O)[C@@H]1CCC(=O)N1 [Leuprolide acetate, leuprolide acetate]",Dose required to overcome the reduction of MMC/hour in fed rats,[1]; ovariectomized female rats,100 ug/100 g body weight
same,"Migrating Motor Complexes, L-Fasted","[1]; 2 μg/100 g body weight, control 3.86 + 0.14, mean + SEM",4.40 + 0.16 MMC/hour
same,"Migrating Motor Complexes, L-Fed","[1]; 2 μg/100 g body weight, control 0",0 MMC/hour
same,"Migrating Motor Complexes, L-Fasted","[1]; 20 μg/100 g body weight, control 5.17 + 0.31, mean + SEM",5.40 + 0.15 MMC/hour
same,"Migrating Motor Complexes, L-Fed","[1]; 20 μg/100 g body weight, control 0",0 MMC/hour
same,"Migrating Motor Complexes, L-Fasted","[1]; 40 μg/100 g body weight, control 4.50 + 0.22, mean + SEM",5.23 + 0.41 MMC/hour
same,"Migrating Motor Complexes, L-Fed","[1]; 40 μg/100 g body weight, control 0.88 + 0.58",0 MMC/hour
same,"Migrating Motor Complexes, L-Fasted","[1]; 100 μg/100 g body weight, control 4.00 + 0.17, mean + SEM",5.00 + 0.41 MMC/hour
same,"Migrating Motor Complexes, L-Fed","[1]; 100 μg/100 g body weight, control 0, mean + SEM",4.50 + 0.34 MMC/hour
same,"Migrating Motor Complexes, L-Fasted","[1]; 250 μg/100 g body weight, control 4.50 + 0.22, mean + SEM",4.50 + 0.29 MMC/hour
same,"Migrating Motor Complexes, L-Fed","[1]; 250 μg/100 g body weight, control 0.88 + 0.58, mean + SEM",5.00 + 0.58 MMC/hour
same,Motility pattern upon the liquid meal,"[2]; SLE patient 4, after six months of therapy, failed to convert before",converted to the fed state
same,Cycling migrating motor complexes in the motility recording,"[2]; SLE patient 4, after six months of therapy, virtually no motility before, normal range 6-8 per 12 hour",six
same,Migrating motor complexes per 12 hour recording session,"[2]; SLE patient 5, 1.75 mg daily s.c., after six months, absence of motility before",Ten
same,Motility pattern after intake of the liquid meal,"[2]; SLE patient 5, after six months of therapy, failed to convert before",converted to the fed state pattern
same,Hydrogen breath test (oral to cecal transit time),"[2]; SLE patient 5, after six months of therapy, markedly prolonged before",unchanged
same,Constipation: after leuprolide acetate,"[3]; Patient 1, 0.5 mg daily s.c.",Daily formed stools
same,Intermittent vomiting: after leuprolide acetate,"[3]; Patient 1, 0.5 mg daily s.c.",Abolished
same,"Nausea, daily: after leuprolide acetate","[3]; Patient 1, 0.5 mg daily s.c.",Decreased considerably
same,"Pain, RUQ, epigastrium, BLQ: after leuprolide acetate","[3]; Patient 1, 0.5 mg daily s.c.",Abolished
same,"Constipation, intermittent: after leuprolide acetate","[3]; Patient 2, 0.5 mg daily s.c.",Daily formed stools
same,Epigastric to RUQ pain: after leuprolide acetate,"[3]; Patient 2, 0.5 mg daily s.c.",Abolished
same,"Nausea, daily: after leuprolide acetate","[3]; Patient 2, 0.5 mg daily s.c.",Abolished
same,Bilateral lower quadrant pain: after leuprolide acetate,[3]; Patient 3 (IIHVN),Abolished
same,Bowel and bladder function after therapy,[3]; Patient 3 (IIHVN),normal bowel and bladder function
same,Epigastric to RUQ pain: after leuprolide acetate,[3]; Patient 3 (IIHVN),Decreased considerably
same,Nausea and vomiting after therapy,[3]; Patient 3 (IIHVN),subsided
same,"Nausea, daily: after leuprolide acetate",[3]; Patient 3 (IIHVN),Abolished
same,Obstipation: after leuprolide acetate,[3]; Patient 3 (IIHVN),Daily formed stools
same,Pain on urination: after leuprolide acetate,[3]; Patient 3 (IIHVN),Abolished
same,Remaining abdominal pain under therapy,[3]; Patient 3 (IIHVN),mild and intermittent abdominal pain
same,Overall response,"[3]; Patient 3 (IIHVN), total abdominal hysterectomy and bilateral salpingo-oophorectomy",responded dramatically
same,Overall outcome,[3]; Patient 4 (IIHVN),symptom-free
same,Constipation after ovulation: after leuprolide acetate,[3]; [4],Daily formed stools
same,Deep boring pain in lower abdomen and rectum: after leuprolide acetate,[3]; [4],Abolished
same,Urinary difficulty after ovulation: after leuprolide acetate,[3]; [4],normal urination
same,Urination frequency after leuprolide acetate,[3]; [4],4 to 6 day⁻¹
same,Overall outcome,[3]; Patient 5 (Roux-en-Y),symptom-free
same,Diarrhea: after leuprolide acetate,[3]; [5],Daily formed stools
same,Epigastric to RUQ pain: after leuprolide acetate,[3]; [5],Abolished
same,Intermittent vomiting: after leuprolide acetate,[3]; [5],Abolished
same,"Nausea, daily: after leuprolide acetate",[3]; [5],Abolished
same,Worsened by eating: after leuprolide acetate,[3]; [5],Abolished
same,Body weight gained,"[3]; Patient 5 (Roux-en-Y), from 96 to 131 pounds",35 pounds
same,Symptoms after leuprolide treatment was stopped and a progesterone challenge given,"[3]; all subjects of Example 1, two week withdrawal",recurrent symptoms within three to five days
same,Debilitating symptoms of patients with Motility Disorders (conclusion of Example 1),"[3]; human, in vivo",successfully reduces or abolishes
same,Overall outcome after treatment,[3]; patients with GMD (Patients 1 and 2),symptom-free
